The record followed here is publication PMC11984586, “A novel spider toxin as a selective antagonist of the Kv1 subfamily of voltage-gated potassium channels through gating modulation” (The Journal of Biological Chemistry, 2025).

Bridge positions count the residues as written; N and C are the ends. Peptide text beside a SMILES is read from it.

Test [1] has as its target T1, Kv1.3/ET (Kv1.3/Q355 E_M358T) (Homo sapiens, UniProt P22001, M358T/Q355E).
T1 construct: expressed in transfected cells; host or cells: CHO-K1
Briefly: Whole-cell patch clamp, Kv1.3 double mutant. Type of test: cell-based. As to conditions: +30 mV, mean ± SD, n = 3–5. From the text: In contrast, differences at positions 347, 355, and 358 between Kv1.3 and Kv1.1 prompted further analysis. To explore whether these discrepancies influence peptide-mediated inhibition, we substituted these residues in Kv1.3 with their homologous counterparts in Kv1.1 and assessed the MrVIII's inhibitory efficacy on these single-point mutants. […] To further investigate this, we introduced double adjacent mutations around Q355 and M358 in Kv1.3 to explore potential synergistic effects on MrVIII's inhibitory activity. […]
(§1) CHO-K1 cells were selected for expressing Kv channels due to their lack of endogenous Kv channels, while HEK293 or ND7/23 cells were used for Nav and Cav channel expression. […] After 4 to 6 h transfection, cells were seeded onto poly-lysine–coated coverslips, and 24 to 36 h later, transfected cells were ready for patch-clamp analysis. […]
For Kv current recordings, the bath solution contained (in mM) the following: 140 NaCl, 5 KCl, 1 MgCl2, 2 CaCl2, 10 glucose, and 10 Hepes (pH 7.3, adjusted with NaOH), and the pipette solution contained (in mM) the following: 140 KCl, 2.5 MgCl2, 11 EGTA, and 10 Hepes (pH 7.3, adjusted with KOH). […] Whole cell conductance (G) at each depolarizing voltage (V) was determined using the equation: G = I/(V−Vrev), where I is the current amplitude, and Vrev is the reversal potential. […]
On the technique in general: Patch clamp records ionic current or voltage across a cell membrane.

The target of the next test is T2, hKv1.7 (Homo sapiens, UniProt Q96RP8).
T2 construct: expressed in transfected cells; host or cells: CHO-K1
The experiment in a line: Whole-cell patch clamp, Kv1.7 ionic current in CHO-K1 cells. Type of test: cell-based. The following applies: mean ± SD. As for the experimental part:
The cDNA of hKv1.1, hKv1.2, hKv1.3, rKv1.4, hKv1.5, mKv1.6, and hKv1.7 were subcloned into mammalian expression vectors pcDNA3.1 or pCMV-blank vectors, as well as other plasmids described previously ([35]). Channel mutants were generated by site-directed mutations. Briefly, the parental channel plasmid was amplified using a pair of oppositely directed primers harboring the designed mutation site, with KOD Fx (TOYOBO Co, Ltd). The resulting PCR mix was treated with FastDigest DpnI (Thermo Fisher Scientific) to remove the methylated template. Ten microliters of the digested product was then used to transform 100 μl E. coli DH5α competent cells. […]
as §1
For Kv current recordings, the bath solution contained (in mM) the following: 140 NaCl, 5 KCl, 1 MgCl2, 2 CaCl2, 10 glucose, and 10 Hepes (pH 7.3, adjusted with NaOH), and the pipette solution contained (in mM) the following: 140 KCl, 2.5 MgCl2, 11 EGTA, and 10 Hepes (pH 7.3, adjusted with KOH). […] The steady-state fast inactivation of Kv1.3 was measured using a two-pulses protocol. […]

T2 sequence (Q96RP8 whole entry): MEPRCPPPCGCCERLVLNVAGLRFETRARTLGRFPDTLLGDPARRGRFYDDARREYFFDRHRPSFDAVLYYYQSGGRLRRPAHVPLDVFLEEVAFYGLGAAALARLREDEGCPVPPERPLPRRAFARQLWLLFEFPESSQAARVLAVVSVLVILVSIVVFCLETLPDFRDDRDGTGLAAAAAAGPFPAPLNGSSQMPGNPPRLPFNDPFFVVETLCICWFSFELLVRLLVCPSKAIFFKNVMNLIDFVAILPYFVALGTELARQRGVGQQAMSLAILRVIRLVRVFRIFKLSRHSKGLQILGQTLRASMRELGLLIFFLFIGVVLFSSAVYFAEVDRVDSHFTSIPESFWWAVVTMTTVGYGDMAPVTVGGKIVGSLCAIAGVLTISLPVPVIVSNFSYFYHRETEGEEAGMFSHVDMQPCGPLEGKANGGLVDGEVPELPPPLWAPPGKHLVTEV
T1 sequence (P22001 whole entry Q355E/M358T): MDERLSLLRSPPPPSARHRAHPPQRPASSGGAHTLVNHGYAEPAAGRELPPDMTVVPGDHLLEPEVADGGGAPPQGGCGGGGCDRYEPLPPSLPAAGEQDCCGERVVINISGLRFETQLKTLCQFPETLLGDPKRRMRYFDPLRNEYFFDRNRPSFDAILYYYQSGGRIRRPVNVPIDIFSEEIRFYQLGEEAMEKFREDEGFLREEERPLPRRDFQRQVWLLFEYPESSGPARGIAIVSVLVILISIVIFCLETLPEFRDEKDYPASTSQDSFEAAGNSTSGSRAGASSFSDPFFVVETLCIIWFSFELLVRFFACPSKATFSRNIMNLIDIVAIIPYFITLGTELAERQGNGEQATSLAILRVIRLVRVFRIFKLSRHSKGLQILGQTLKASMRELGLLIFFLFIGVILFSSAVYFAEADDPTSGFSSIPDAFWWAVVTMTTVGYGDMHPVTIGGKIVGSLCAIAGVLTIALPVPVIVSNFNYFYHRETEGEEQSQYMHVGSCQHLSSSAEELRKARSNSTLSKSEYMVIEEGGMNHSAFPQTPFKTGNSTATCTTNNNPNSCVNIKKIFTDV

One may read the IC50 as the point on the concentration scale where inhibition reaches its midpoint. Consider `CC[C@H](C)[C@@H]1NC(=O)[C@H](Cc2ccc(O)cc2)NC(=O)[C@H](CCC(N)=O)NC(=O)[C@@H]2CCCN2C(=O)[C@@H]2CSSC[C@H](NC(=O)[C@H](C)NC(=O)[C@H](CO)NC(=O)[C@H](CCC(=O)O)NC(=O)[C@H](CCC(=O)O)NC(=O)[C@@H](N)[C@@H](C)O)C(=O)NCC(=O)NCC(=O)N[C@@H](Cc3ccccc3)C(=O)N[C@@H](CC(N)=O)C(=O)N[C@@H](C)C(=O)N[C@@H](CCCNC(=N)N)C(=O)N[C@H]3CSSC[C@H](NC1=O)C(=O)N[C@@H](CCCCN)C(=O)NCC(=O)N[C@@H](Cc1c[nH]c4ccccc14)C(=O)N[C@@H](CCCNC(=N)N)C(=O)N[C@@H]([C@@H](C)O)C(=O)N[C@@H](CCCCN)C(=O)N[C@@H](CCCNC(=N)N)C(=O)N[C@H](C(=O)N[C@@H](CC(C)C)C(=O)N[C@@H](CC(N)=O)C(=O)N1CCC[C@H]1C(=O)O)CSSC[C@H](NC(=O)[C@H](CCCCN)NC(=O)[C@H](Cc1c[nH]cn1)NC(=O)[C@H](CC(C)C)NC(=O)[C@@H]1CCCN1C3=O)C(=O)N2` [MrVIII] (H-TEESACGGFNARCPLHKCCPQYICKGWRTKRCLNP-OH; disulfide 6-19, 13-24, 18-32; N-terminus and C-terminus assumed), for which the IC50 in test [1] (current at 50 ms) turned out to be 122 ± 24.5 nM; against hKv1.7 (current measured at 50 ms of a 500 ms depolarization to +30 mV, n = 4–7) it was 199 ± 50.3 nM. In addition, in test [1] (current at 495 ms), the “inhi%(495 ms), Kv1.3/ET current” value is recorded as −35.4 ± 20.7%. Moreover, at hKv1.7 (10 μM (saturating), current at 495 ms, +30 mV), the “inhi%(495 ms), Kv1.7 current” value was determined as 33.3 ± 3.0%.
